US20200239530A1, “COMPOUNDS AND METHODS OF MODULATING PROTEIN DEGRADATION” (Vividion Therapeutics, Inc., priority 2017, published 2020)

Tests used:
Assay in all cases: Cysteine liganding, probe competition
Format in all cases: binding
[1] = biological target: T1, CDK18 Cyclin-dependent kinase 18 (Homo sapiens, UniProt Q07002); settings: for Liganded: CDK18 Res# 183, uniprot Q07002
T1 construct: 200 μL of lysate containing 5 mg/ml proteome was treated with 2 μL of 100× compound stock; endogenous in cells
T1 sequence (Q07002 whole entry): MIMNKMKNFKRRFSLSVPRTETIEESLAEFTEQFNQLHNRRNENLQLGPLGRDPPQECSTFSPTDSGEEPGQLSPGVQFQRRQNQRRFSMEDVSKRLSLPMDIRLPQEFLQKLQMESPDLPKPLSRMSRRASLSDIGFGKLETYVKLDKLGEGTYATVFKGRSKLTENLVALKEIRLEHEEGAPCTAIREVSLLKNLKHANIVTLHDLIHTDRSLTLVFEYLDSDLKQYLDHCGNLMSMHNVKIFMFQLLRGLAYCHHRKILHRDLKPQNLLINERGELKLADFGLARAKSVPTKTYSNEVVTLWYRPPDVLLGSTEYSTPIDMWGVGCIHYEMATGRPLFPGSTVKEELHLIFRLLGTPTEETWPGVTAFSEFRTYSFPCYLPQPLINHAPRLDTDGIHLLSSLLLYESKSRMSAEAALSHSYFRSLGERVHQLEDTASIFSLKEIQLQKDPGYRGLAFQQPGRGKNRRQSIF
Summary of the method: (§1)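 Probe competition in native proteome: 5 mg/ml lysate, compound 1 hr 25° C, then desthiobiotin iodoacetamide (10 mM stock) 1 hr 25° C; acetone ppt, urea/DTT reduction, iodoacetamide alkylation, trypsin, streptavidin pull-down.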

[2] = biological target: T2, KBTBD8 Kelch repeat and BTB domain-containing protein 8 (Homo sapiens, UniProt Q8NFY9); settings: for 100 Max / 100 ave / 500 Max / 500 ave: uniprot Q8NFY9
T2 construct: Cells were resuspended in cold PBS on ice and sonicated with a probe sonicator to achieve lysis; endogenous in cells
T2 sequence (Q8NFY9 1-601): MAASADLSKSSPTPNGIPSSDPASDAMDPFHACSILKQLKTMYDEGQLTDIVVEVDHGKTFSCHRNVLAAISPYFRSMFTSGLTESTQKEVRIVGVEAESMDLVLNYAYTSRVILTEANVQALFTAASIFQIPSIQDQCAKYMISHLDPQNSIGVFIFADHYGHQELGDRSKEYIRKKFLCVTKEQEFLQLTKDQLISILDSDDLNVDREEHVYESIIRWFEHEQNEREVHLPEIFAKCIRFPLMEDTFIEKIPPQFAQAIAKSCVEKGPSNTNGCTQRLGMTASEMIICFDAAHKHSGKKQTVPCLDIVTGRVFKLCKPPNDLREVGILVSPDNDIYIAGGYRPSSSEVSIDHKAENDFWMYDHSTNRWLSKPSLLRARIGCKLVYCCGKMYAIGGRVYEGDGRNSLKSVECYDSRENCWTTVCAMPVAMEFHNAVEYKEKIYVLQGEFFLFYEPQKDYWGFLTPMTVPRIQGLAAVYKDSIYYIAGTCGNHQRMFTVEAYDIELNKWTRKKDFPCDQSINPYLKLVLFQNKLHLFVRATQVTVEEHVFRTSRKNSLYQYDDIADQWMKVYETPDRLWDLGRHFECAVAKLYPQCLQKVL
Summary of the method: as §1

[3] = biological target: T3, SEC63 Translocation protein SEC63 homolog (Homo sapiens, UniProt Q9UGP8)
T3 construct: Cells were resuspended in cold PBS on ice and sonicated with a probe sonicator to achieve lysis; endogenous in cells
T3 sequence (Q9UGP8 1-760): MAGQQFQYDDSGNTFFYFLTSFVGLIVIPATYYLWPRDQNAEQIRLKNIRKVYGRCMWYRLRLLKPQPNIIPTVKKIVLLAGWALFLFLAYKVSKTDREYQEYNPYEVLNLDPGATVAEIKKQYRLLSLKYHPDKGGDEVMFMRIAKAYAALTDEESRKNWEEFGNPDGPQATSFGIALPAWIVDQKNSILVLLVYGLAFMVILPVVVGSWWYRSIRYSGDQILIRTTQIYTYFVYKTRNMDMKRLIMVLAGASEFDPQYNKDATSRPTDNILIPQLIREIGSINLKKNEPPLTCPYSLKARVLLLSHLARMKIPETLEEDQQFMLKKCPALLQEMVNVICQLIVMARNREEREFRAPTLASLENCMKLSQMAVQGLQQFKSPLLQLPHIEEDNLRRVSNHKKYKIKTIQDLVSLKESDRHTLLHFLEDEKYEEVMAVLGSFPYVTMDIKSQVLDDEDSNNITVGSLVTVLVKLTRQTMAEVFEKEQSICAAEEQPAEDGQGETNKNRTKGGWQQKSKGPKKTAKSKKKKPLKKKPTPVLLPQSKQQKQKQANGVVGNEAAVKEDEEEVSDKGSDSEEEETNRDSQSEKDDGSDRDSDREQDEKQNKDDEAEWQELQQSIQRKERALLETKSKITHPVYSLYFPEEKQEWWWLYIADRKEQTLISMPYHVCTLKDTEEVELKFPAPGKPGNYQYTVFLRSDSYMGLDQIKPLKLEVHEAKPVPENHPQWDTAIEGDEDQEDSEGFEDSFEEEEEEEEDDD
Summary of the method: as §1

SMILES	Liganded [1]	Liganded ([2]; KBTBD8 Res# 181, uniprot Q8NFY9)	100 Max [2]	100 ave [2]	500 Max [2]	500 ave [2]	Liganded ([3]; SEC63 Res# 295, uniprot Q9UGP8)	100 Max ([1]; uniprot Q07002)	100 ave ([1]; uniprot Q07002)	500 Max ([1]; uniprot Q07002)	500 ave ([1]; uniprot Q07002)	100 Max ([3]; uniprot Q9UGP8)	100 ave ([3]; uniprot Q9UGP8)	500 Max ([3]; uniprot Q9UGP8)	500 ave ([3]; uniprot Q9UGP8)
COc1ccc2c(c1)CCCN2C(=O)CCl [KB02]	YES	YES	38.4	36.7	79.2	79.2	YES	–	–	–	–	–	–	–	–
O=C(CCl)Nc1cc(C(F)(F)F)cc(C(F)(F)F)c1 [KBO3]	YES	–	5.3	−7.4	21.5	21.5	–	50.67	28.2075	80.44	79.225	17.92	4.99	55.53	48.96
